Data: US20100286603A1, “KIT AND METHOD FOR PREPARATION OF A DEGARELIX SOLUTION” (priority 2009, published 2010)
Where a SMILES comes first, the peptide text is derived from it. [ ]: non-standard residue; d: D form. The star is where a group is joined. dPhe(4-NHCONH2) = NC(=O)Nc1ccc(C[C@@H](N)C(=O)O)cc1; Dihydroorotyl(S) = O=C1C[C@@H](C(=O)*)NC(=O)N1; dPhe(4-Cl) = N[C@H](Cc1ccc(Cl)cc1)C(=O)O; Phe(4-NH2) = Nc1ccc(C[C@H](N)C(=O)O)cc1; d2Nal = N[C@H](Cc1ccc2ccccc2c1)C(=O)O; Lys(iPr) = CC(C)NCCCC[C@H](N)C(=O)O; d3Pal = N[C@H](Cc1cccnc1)C(=O)O

How the values were obtained:
[1] = Reconstitution of lyophilised Degarelix with water for injection, swirled by hand (laboratory testing); type: physicochemical
Description: The WFI in the syringe is then transferred into the Degarelix vial (I) and the assembly of vial, needle, and syringe is swirled by hand to ensure that the lyophilised Degarelix has completely gone into solution. […] In laboratory testing, the reconstitution times for hand swirled Degarelix solutions comprising 80 mg and 120 mg of lyophilised Degarelix are about 5 minutes and 7 minutes respectively. The slowest reconstitution times are considerably greater, however, and can be up to 15 minutes. To ensure that the Degarelix drug product has been fully reconstituted, the care-provider is required to swirl the assembly, by hand, for a period of up to 15 minutes. To assess whether the drug has been reconstituted, the care-provider periodically checks the vial to determine whether the solution is completely clear or not.

[2] = Reconstitution of lyophilised Degarelix with water for injection using an automatic swirling machine (laboratory tests); type: physicochemical; settings: tested for the 80 mg and 120 mg doses
Description: For example, laboratory tests have shown that average reconstitution times when an automatic swirling machine is used are in the region of 0.8 minutes and the slowest times for reconstitution are in the region of 1.25 to 1.5 minutes (tested for the 80 mg and 120 mg doses). This compares well with the present system of swirling by hand, where the slowest times for reconstitution are near to 15 minutes. An automatic mixing apparatus may enable a reconstitution protocol to be formulated in which the Degarelix and WFI are mixed for a relatively short period of time, after which the Degarelix should in the vast majority of cases have gone into solution, as compared with mixing by hand. It is contemplated that the care-provider may check the clarity of the solution after it has been reconstituted with the automatic mixing apparatus and, if fully reconstituted, administer the solution to the patient.

testosterone = settings: used in a clinical preparation; cited from earlier work

reconstitution time ([1]; 80 mg of lyophilised Degarelix): about 5 minutes | reconstitution time ([1]; 120 mg of lyophilised Degarelix): ~7 min | average reconstitution time [2]: ~0.8 min
SMILES: CC(=O)N[C@H](Cc1ccc2ccccc2c1)C(=O)N[C@H](Cc1ccc(Cl)cc1)C(=O)N[C@H](Cc1cccnc1)C(=O)N[C@@H](CO)C(=O)N[C@@H](Cc1ccc(NC(=O)[C@@H]2CC(=O)NC(=O)N2)cc1)C(=O)N[C@H](Cc1ccc(NC(N)=O)cc1)C(=O)N[C@@H](CC(C)C)C(=O)N[C@@H](CCCCNC(C)C)C(=O)N1CCC[C@H]1C(=O)N[C@H](C)C(N)=O [Degarelix] (Ac-[d2Nal][dPhe(4-Cl)][d3Pal]S[Phe(4-NH2)](Dihydroorotyl(S))[dPhe(4-NHCONH2)]L[Lys(iPr)]P[dA]-NH2)
levels of testosterone (testosterone): reduction in levels of testosterone
